Legend:
Assay type in all cases: cell-based
[1] = test system: Porphyromonas gingivalis ATCC 33277; assay: Growth inhibition assay, P. gingivalis (colony counts normalized to pH-matched Schaedler's broth)
Procedure: Solobacterium moorei DSM 22971 and Porphyromonas gingivalis ATCC 33277 were grown in Schaedler's broth (Himedia) or Brucella blood agar with hemin and vitamin K (Hardy Diagnostics) under anaerobic conditions at 37° C. Anaerobic conditions were maintained using the Anaerogen atmosphere generation system (Oxoid). Streptococcus mutans UA159 were grown in Brain Heart Infusion (BHI; Hardy Diagnostics) under 5% CO2 at 37° C. Various concentrations of xylitol (Acros Organics), erythritol (Acros Organics) and/or polyphenon 60 (Sigma) were dissolved in Schaedler's broth or BHI broth. […] The mixtures were pH adjusted using either hydrochloric acid or sodium hydroxide to a final pH of 6.5±0.1, 7.5±0.1 or 8.5±0.1. All test products were filter-sterilized after pH adjustment. […] After 48 h of incubation, various dilutions of the cells were spotted into Brucella blood agar with hem in and vitamin K, and incubated for 48 h for S. moorei, and for 72 h for P. gingivalis. Cell counts were normalized against growth in Schaedler's broth adjusted to their respective testing pH. […] The percent inhibition was measured by normalizing the results against P. gingivalis grown in media with the corresponding pH adjustment. […] The percent inhibition was measured by normalizing the results against P. gingivalis grown in media with the corresponding pH adjustment.

[2] = test system: Streptococcus mutans UA159; assay: Growth inhibition assay, S. mutans (colony counts normalized to pH-matched BHI); settings: 1% (w/v) or 10% (w/v) sugar alcohol alone, pH 6.5, 7.5 or 8.5
[3] = test system: Solobacterium moorei DSM 22971; assay: Growth inhibition assay, S. moorei (colony counts normalized to pH-matched Schaedler's broth)
Procedure: Solobacterium moorei DSM 22971 and Porphyromonas gingivalis ATCC 33277 were grown in Schaedler's broth (Himedia) or Brucella blood agar with hemin and vitamin K (Hardy Diagnostics) under anaerobic conditions at 37° C. Anaerobic conditions were maintained using the Anaerogen atmosphere generation system (Oxoid). Streptococcus mutans UA159 were grown in Brain Heart Infusion (BHI; Hardy Diagnostics) under 5% CO2 at 37° C. Various concentrations of xylitol (Acros Organics), erythritol (Acros Organics) and/or polyphenon 60 (Sigma) were dissolved in Schaedler's broth or BHI broth. […] The mixtures were pH adjusted using either hydrochloric acid or sodium hydroxide to a final pH of 6.5±0.1, 7.5±0.1 or 8.5±0.1. All test products were filter-sterilized after pH adjustment. […] After 48 h of incubation, various dilutions of the cells were spotted into Brucella blood agar with hem in and vitamin K, and incubated for 48 h for S. moorei, and for 72 h for P. gingivalis. Cell counts were normalized against growth in Schaedler's broth adjusted to their respective testing pH. […] The percent inhibition was measured by normalizing the results against S. moorei grown in media with the corresponding pH adjustment. […] The percent survival was measured by normalizing the results against S. moorei grown in media with the corresponding pH adjustment. […] The percent inhibition was measured by normalizing the results against S. moorei grown in media with the corresponding pH adjustment. An upper limit of 0.1 mg/mL polyphenon 60 was used in order to be able to assess the pH effects.

[4] = 10% sugar alcohol alone, pH 6.5
[5] = 10% sugar alcohol alone, pH 7.5
[6] = 10% sugar alcohol alone, pH 8.5

| Compound | Survival of P. gingivalis ([1]; 1% sugar alcohol alone, pH 6.5) [%] | Survival of P. gingivalis ([1]; 1% sugar alcohol alone, pH 7.5) [%] | Survival of P. gingivalis [1, 4] [%] | Survival of P. gingivalis [1, 5] [%] | Survival of P. gingivalis [1, 6] [%] | inhibitory activity on growth of S. mutans [2] | S. moorei survival [3, 4] [%] | S. moorei survival [3, 5] [%] | S. moorei survival [3, 6] [%] | inhibition of S. moorei growth ([3]; on its own at varying concentrations, any pH) | Survival of P. gingivalis ([1]; 1% sugar alcohol alone, pH 8.5) [%] | S. moorei survival ([3]; 1% sugar alcohol alone, pH 6.5) [%] | S. moorei survival ([3]; 1% sugar alcohol alone, pH 7.5) [%] | S. moorei survival ([3]; 1% sugar alcohol alone, pH 8.5) [%] |
| --- | --- | --- | --- | --- | --- | --- | --- | --- | --- | --- | --- | --- | --- | --- |
| OC[C@@H](O)[C@@H](O)CO [erythritol] | 92.1 | 75.4 | 41.1 | 19.9 | 13.6 | inhibit growth | 140.4 | 156.9 | 162.0 | did not inhibit | – | – | – | – |
| OC[C@@H](O)[C@H](O)[C@@H](O)CO [xylitol] | 69.8 | 63.2 | 14.3 | 8.9 | 7.4 | had inhibitory activity | 52.6 | 53.6 | 26.8 | – | 60.0 | 52.0 | 53.3 | 17.3 |

Source: patent publication US11382850B2, “Compositions and methods for inhibiting growth of caries-, gingivitis- and halitosis-causing bacteria” (DoseBiome Inc., priority 2019, dated 2022)
